From patent US20240366728A1, “Treatment of Diabetes Mellitus” (Carmot Therapeutics Inc., priority 2023, published 2024)
“And” between values parts separate entries of the source, which are not always exact repeats. Equal entries are not always repeated.

Tests used:
[1] = tested on: lean participants and participants with overweight/obesity; experiment: Phase 1 first-in-human SAD/MAD study: safety and tolerability; assay type: in vivo; settings: for safety and tolerability (in words): no up-titration
Excerpt: This was a randomized, double-blind, placebo-controlled, dose escalation first-in-human (FIH) conducted from December 2018 to January 2020 at a study center in Victoria, Australia in accordance with principles of the Declaration of Helsinki (Ethical Principles for Medical Research Involving Human Subjects), and the NHMRC National Statement on Ethical Conduct in Human Research 2007 (updated 2018). (Registered on the Australian New Zealand Clinical Trials Registry [ANZCTR] under the identifier: ACTRN12618001988246).
Daily doses were given on Day 2 to Day 14. Cohort M1 was dosed with the highest dose level, determined based on the safety and PK data from the preceding Part 1 (SAD), and doses were decreased sequentially for Cohorts M2 and M3 (FIG. 46B).
Following study drug administration, Part 1 (SAD) participants underwent safety and other assessments on Day 3 and Day 8 (±1 day, outpatient) and were followed for at least 30 days after the last administered dose of study drug. Part 2 (MAD) participants underwent safety and other assessments and discharged in the absence of clinically significant safety signals, following completion of all Day 16 assessments. All participants were followed for at least 30 days after the last administered dose of study drug. Participants were follow-up for safety and other assessments on Day 21 (±2 days, outpatient) and Day 44 (±3 days, teleconference).
The primary endpoints were the incidence, nature and severity of AEs, safety laboratory analytes, vital signs, electrocardiograms (ECGs), and incidence of events of special interest (AESI).
Adverse events were coded using the Medical Dictionary for Regulatory Activities (MedDRAR Version 21.1). The number of participants experiencing treatment-emergent AEs (TEAEs) and number of individual TEAEs are summarized by treatment, SOC, and PT. TEAEs are also summarized by severity and by relationship to study drug. AESIs are listed and summarized by treatment group. Listings of AEs leading to discontinuation of the study, SAEs and deaths, are provided as applicable.

[2] = tested on: lean C57BL/6J, GLP-1R+/+ and GLP-1R-/- mice; experiment: single intracerebroventricular injection: food consumption and body weight; settings: for food consumption and body weight (in words) / body weight decreased / body weight decreased compared to liraglutide / food consumption lowered compared to liraglutide / food consumption lowered compared to vehicle: ICV 0.025 nmol; for body weight decreased / body weight decreased compared to liraglutide / food consumption lowered compared to liraglutide / food consumption lowered compared to vehicle: lean C57BL/6J
DIO C57BL/6J mice = experiment: chronic daily SC dosing in DIO mice (body weight, food, glucose, insulin, tissue weights); assay type: in vivo, mouse
Method: Body weight and food consumption were measured daily (FIGS. 8 and 9). On the last day of the study mice were fasted for 5 hours. At the end of the fasting period, glucose was measured (FIG. 6) and plasma was collected for insulin analysis. Plasma insulin was measured using an MSD kit. Fasting glucose and insulin were used to calculate the log (HOMA-IR) (FIG. 7).
Body weight was measured daily (FIG. 11). […] On the last day of the study, glucose was measured, and plasma was collected for insulin analysis. Plasma insulin was measured using an MSD kit. Glucose and insulin were used to calculate log (HOMA-IR) (FIG. 10).
DIO mice were acclimated to daily weighing and handling for approximately 1 week until their weight had stabilized. Mice were injected subcutaneously once daily with the indicated dose of peptide, or vehicle, based on current body weight. Injections were performed six hours before the dark cycle started to approximate reaching Tmax when the dark cycle started. Where indicated, 24-hour food consumption studies were performed as described above. Body weight as a percentage of initial weight was calculated daily by dividing the daily body weight by the body weight taken before the first dose of peptide, multiplied by 100%. Blood glucose was determined at study termination, and blood was collected to quantify plasma insulin concentrations. Mice were sedated by isoflurane and euthanized by decapitation. […] Plasma was stored at −80° C. until analysis. Subcutaneous and inguinal fat and the liver were removed and weighed.
DIO and ob/ob mice were acclimated to daily weighing and handling for approximately one week until weight had stabilized. […] Injections were performed six hours before the start of the dark cycle to approximate reaching Tmax when the dark cycle started. […] In both the DIO and ob/ob weight loss studies, body weight as a percentage of initial weight was calculated daily by dividing the daily body weight by the body weight taken before the first dose of peptide, multiplied by 100%. Blood glucose was determined at study termination, and blood was collected to quantify plasma insulin concentrations. Mice were sedated by isoflurane and euthanized by decapitation. […] Subcutaneous and inguinal fat and the liver were removed and weighed.

in vivo = settings: CD-1, mouse, plasma, sc
Method: First reader's note: The heading '1 mg/kg SC mouse' is printed over the plot above the table and gives dose, route and species for the pharmacokinetic parameters.

lean C57BL/6J mice = experiment: intraperitoneal glucose tolerance test in lean mice

SMILES: CCCCCCCCCCCCCCCC(=O)N[C@@H](CCC(=O)NCCCC[C@H](NC(=O)[C@H](CO)NC(=O)[C@@H]1CCCN1C(=O)[C@@H]1CCCN1C(=O)[C@@H]1CCCN1C(=O)[C@H](C)NC(=O)CNC(=O)[C@H](CO)NC(=O)[C@H](CO)NC(=O)[C@@H]1CCCN1C(=O)CNC(=O)CNC(=O)[C@H](C)NC(=O)[C@H](CC(C)C)NC(=O)[C@H](CC(C)C)NC(=O)[C@H](Cc1c[nH]c2ccccc12)NC(=O)[C@H](CC(N)=O)NC(=O)[C@@H](NC(=O)[C@H](Cc1ccccc1)NC(=O)[C@H](CCC(=O)O)NC(=O)C(C)(C)NC(=O)[C@H](C)NC(=O)[C@H](C)NC(=O)[C@H](CCC(N)=O)NC(=O)[C@H](CCCCN)NC(=O)[C@H](CC(=O)O)NC(=O)[C@H](CC(C)C)NC(=O)[C@H](Cc1ccc(O)cc1)NC(=O)[C@@H](NC(=O)[C@H](CO)NC(=O)[C@H](Cc1ccc(O)cc1)NC(=O)[C@H](CC(=O)O)NC(=O)[C@H](CO)NC(=O)[C@@H](NC(=O)[C@H](Cc1ccccc1)NC(=O)[C@@H](NC(=O)CNC(=O)[C@H](CCC(=O)O)NC(=O)CSCC(=O)NCCN1CCCCC1=O)[C@@H](C)O)[C@@H](C)O)[C@@H](C)CC)C(C)C)C(N)=O)C(=O)O [CT-868]
- participants reporting only nausea ([1]; MAD 0.75 mg): 2/6
- participants with abdominal pain ([1]; MAD 1.5 mg): 1/6
- participants with constipation ([1]; MAD 1.5 mg): 4/6
- participants with diarrhea ([1]; MAD 1.5 mg): 1/6
- participants with gastrointestinal symptoms ([1]; MAD 1.5 mg): 4/6
- participants with nausea ([1]; MAD 1.5 mg): 2/6
- participants with vomiting ([1]; MAD 1.5 mg): 2/6
- mild to moderate gastrointestinal symptoms (in words) ([1]; MAD 5.0 mg): reported by all six participants
- drug withdrawal due to drug-related TEAEs (in words) ([1]; MAD 5.0 mg, mild nausea and vomiting): One participant
- maximum tolerated single dose ([1]; SAD): 7.5 mg
- participants with drug-related TEAEs ([1]; SAD 7.5 mg, two events of nausea and one of diarrhea): 50%
- participants with gastrointestinal TEAEs ([1]; SAD 11.0 mg, twelve events, all drug-related): 100%
- SAEs and drug-induced hypoglycemia (in words) ([1]; SAD and MAD phases): no serious adverse events (SAEs) or drug-induced hypoglycemia events
- safety and tolerability (in words) ([1]; single doses up to 7.5 mg, up to 1.5 mg/day for 14 days): generally safe and well tolerated
- safety and tolerability (in words) ([1]; up to 11 mg single dose, up to 5 mg/day for 14 days): safe and well tolerated

SMILES: CCCCCCCCCCCCCCCC(=O)N[C@@H](CCC(=O)NCCCC[C@H](NC(=O)[C@H](CO)NC(=O)[C@@H]1CCCN1C(=O)[C@@H]1CCCN1C(=O)[C@@H]1CCCN1C(=O)[C@H](C)NC(=O)CNC(=O)[C@H](CO)NC(=O)[C@H](CO)NC(=O)[C@@H]1CCCN1C(=O)CNC(=O)CNC(=O)[C@H](C)NC(=O)[C@H](CC(C)C)NC(=O)[C@H](CC(C)C)NC(=O)[C@H](Cc1c[nH]c2ccccc12)NC(=O)[C@H](CC(N)=O)NC(=O)[C@@H](NC(=O)[C@H](Cc1ccccc1)NC(=O)[C@H](CCC(=O)O)NC(=O)C(C)(C)NC(=O)[C@H](C)NC(=O)[C@H](C)NC(=O)[C@H](CCC(N)=O)NC(=O)[C@H](CCCCN)NC(=O)[C@H](CC(=O)O)NC(=O)[C@H](CC(C)C)NC(=O)[C@H](Cc1ccc(O)cc1)NC(=O)[C@@H](NC(=O)[C@H](CO)NC(=O)[C@H](Cc1ccc(O)cc1)NC(=O)[C@H](CC(=O)O)NC(=O)[C@H](CO)NC(=O)[C@@H](NC(=O)[C@H](Cc1ccccc1)NC(=O)[C@@H](NC(=O)CNC(=O)[C@H](CCC(=O)O)NC(=O)CSCC(=O)NCCN1C(=O)CSC1=O)[C@@H](C)O)[C@@H](C)O)[C@@H](C)CC)C(C)C)C(N)=O)C(=O)O [CT-859]
- food consumption and body weight vs liraglutide after ICV (in words) [2]: decreased food consumption and body weight more than liraglutide
- food consumption and body weight (in words) ([2]; GLP-1R+/+ mice): suppressed food consumption and reduced body weight
- food consumption and body weight (in words) ([2]; GLP-1R-/- mice): no effect
- food consumption, body weight, blood glucose after ICV (in words) ([2]; GLP-1R-KO mice, 0.025 and 1 nmol/kg): did not have any significant effects on food consumption, body weight, or blood glucose
- food consumption, body weight after ICV (in words) ([2]; GLP-1R-WT mice, 0.025 and 1 nmol/kg, up to 72 h): dose dependent reduction of cumulative food consumption
- body weight decreased ([2]; 24 hours): 9%
- body weight decreased compared to liraglutide ([2]; 24 hours): 5%
- food consumption lowered compared to liraglutide ([2]; 24 hours): 45%
- food consumption lowered compared to vehicle ([2]; 24 hours): 63%
- body weight decreased ([2]; 48 hours): 5%
- body weight decreased compared to liraglutide ([2]; 48 hours): 5%
- food consumption lowered compared to liraglutide ([2]; 48 hours): 27%
- food consumption lowered compared to vehicle ([2]; 48 hours): 38%
- food intake and body weight vs equal dose of liraglutide (in words) ([2]; wildtype mice, ICV […], up to 19 h): significantly greater reduction of food intake and body weight
- adipose tissue weight vs liraglutide (in words) (DIO C57BL/6J mice): decreases adipose tissue weight more than liraglutide
- body weight vs liraglutide (in words) (DIO C57BL/6J mice; 20 and 200 nmol/kg): decreases body weight more than liraglutide at non-GIPR and GIPR engaging doses
- body weight decreased compared to liraglutide, end of study (DIO C57BL/6J mice; DIO mice, 20 nmol/kg, 19 days): 8%
- body weight decreased compared to vehicle, end of study (DIO C57BL/6J mice; DIO mice, 20 nmol/kg, 19 days): 20%
- fasting glucose (in words) (DIO C57BL/6J mice; DIO mice, 20 nmol/kg, 19 days): lowered fasting glucose more than liraglutide
- inguinal adipose weight lower than vehicle (DIO C57BL/6J mice; DIO mice, 20 nmol/kg, 19 days): 39%
- cumulative food intake vs liraglutide (in words) (DIO C57BL/6J mice; DIO mice, 20 nmol/kg, 20 days): without significant difference in cumulative food intake
- fasting GLUC (DIO C57BL/6J mice; DIO mice, 20 nmol/kg, 20 days): 146.5 mg/dL
- weight loss (WL) (DIO C57BL/6J mice; DIO mice, 20 nmol/kg, 20 days): −16.5%
- insulin resistance log (HOMA-IR) (DIO C57BL/6J mice; DIO mice, 20 nmol/kg, 20 days, fasted): 0.74
- adipose weight (in words) (DIO C57BL/6J mice; DIO mice, 200 nmol/kg, 19 days): decreased inguinal and epididymal adipose weight more than liraglutide
- body weight decreased compared to liraglutide, end of study (DIO C57BL/6J mice; DIO mice, 200 nmol/kg, 19 days): 14%
- body weight decreased compared to vehicle, end of study (DIO C57BL/6J mice; DIO mice, 200 nmol/kg, 19 days): 33% and ~35%
- fed glucose levels (in words) (DIO C57BL/6J mice; DIO mice, 200 nmol/kg, 19 days): decreased fed glucose levels more than the vehicle
- nonfasted log (HOMA-IR) (DIO C57BL/6J mice; DIO mice, 200 nmol/kg, 20 days): 1.17
- weight loss (WL) (DIO C57BL/6J mice; DIO mice, 200 nmol/kg, 20 days): −30.1%
- food consumption lowered compared to liraglutide (DIO C57BL/6J mice; DIO mice, 200 nmol/kg, after 7 days of dosing): 39%
- food intake (DIO C57BL/6J mice; DIO mice, 200 nmol/kg, day 7): 1.2 g
- food intake (DIO C57BL/6J mice; DIO mice, 200 nmol/kg, day 14): 1.7 g
- additional weight loss over liraglutide (DIO C57BL/6J mice; DIO mice, GIPR-engaging dose): 10%
- Cmax (in vivo): 324 nM
- half-life (in vivo): 8.72 h
- in vivo potency vs liraglutide (in words) (lean C57BL/6J mice): more potent than liraglutide in vivo
- duration of glucose lowering (in words) (lean C57BL/6J mice; lean C57BL/6J and DIO mice, single 20 nmol/kg): remained efficacious up to 48 hours post-administration
- ED50 for improving post-prandial glucose in ipGTT (lean C57BL/6J mice; lean C57BL/6J mice, 4 h after SC dose): 0.46 nmol/kg
- acute effect on GLUC AUC (in words) (lean C57BL/6J mice; lean mice, 20 nmol/kg, 4 h after administration): acute reduction of glucose (GLUC) AUC
- reduction in GLUC AUC vs. vehicle (lean C57BL/6J mice; lean mice, 20 nmol/kg, 48 hours): 45%
